# Results published in article PMC9611727, “Optimization of a Novel Mandelamide-Derived Pyrrolopyrimidine Series of PERK Inhibitors” (Pharmaceutics, 2022).
# Read-outs that look alike come from different tables or passages of the source.
# Assays:
# [1] = test system: p-eIF2α; assay: Cellular PERK inhibition: p-eIF2a TR-FRET in tunicamycin-treated HEK293-EGFP-eIF2a cells; assay type: cell-based
# Protocol: Methods used to evaluate in vitro cellular PERK inhibition are described and published elsewhere. In brief, stableHEK293 cells were created using lentiviral particles harboring a GFP-eIF2a expression vector. Transfectants were selected by puromycin and enriched using fluorescent cell sorting based on GFP expression. HEK293-EGFP-eIF2a cells were plated at 5000 cells/well in 384-well assay plates and incubated overnight. The following day, pyrrolopyrimidine analogs were added to wells using an Echo acoustic dispenser and incubated for 30 min. ER stress was induced by the addition of tunicamycin to the wells at […] for 2 h. Cells were lysed and peIF2a was evaluated using a TR-FRET system, as described above.
# The PERK activity of analog I was evaluated using cell-free biochemical assays. In these assays, PERK phosphorylation of eIF2a was assessed using a FRET-based labelled protein assay. Compounds were then evaluated for cellular activity by quantifying inhibition of eIF2a phosphorylation in HEK293 cells treated with the ER inducer tunicamycin [7].
# [2] = Plasma protein binding (RED dialysis), human; assay type: in vitro ADME; settings: both sexes, pooled human plasma, pH 7.4
# Excerpt: (§1) Verapamil hydrochloride and tamoxifen were obtained from Sigma-Aldrich. […]
# (§2) Pooled mixed gender human donor plasma, Sprague Dawley male rat plasma, CD-1 (ICR) male mouse plasma and male beagle dog plasma were obtained from Bioreclamation Inc. (Westbury, NY). Reusable Teflon base plate, RED Device inserts, and BupH Phosphate Buffered Saline packs (0.1 M sodium phosphate and 0.15 M sodium chloride when dissolved in 0.5 L water) were obtained from Thermo Scientific (Waltham, MA). Propranolol was obtained from Sigma-Aldrich (St. Louis, MO). All solvents were obtained from commercial sources and used without further purification.
# (§3) Frozen plasma was thawed and the pH of plasma and BupH phosphate buffered saline was adjusted to 7.4 prior to dialysis. Into each well of a reusable Teflon 48-well base plate a RED insert was placed open end up. Ten microliters (10 µL) of the test compound (0.1 mM in acetonitrile/water, 1:1 v/v) was added to 990 µL of plasma to achieve 1 µM final concentration. The spiked plasma (200 µL) was added to the sample chamber, which is indicated by the red retainer ring (donor side). To the other side (receiver side), 350 µL of BupH phosphate buffered saline (pH 7.4) was added. A buffer-to-buffer assay was also performed to measure equilibrium across the membrane in the absence of plasma protein.
# (§4) Propranolol was used as a positive control. All samples were prepared in triplicate. The RED device base plate was then sealed and placed in a shaking incubator set to maintain 37°C and 200 rpm for four hours.
# (§5) After incubation, 100 µL of each sample was combined with an equal volume of either plasma or buffer, to create a similar matrix for all samples. Blank buffer was added to plasma samples, and vice versa. Samples from the incubation, along with the original compound-spiked plasma samples, were prepared for analysis in the same manner. Protein precipitation by addition of two parts of ice-cold acetonitrile to one part of reaction volume was carried out. To ensure complete protein precipitation samples were sealed and placed overnight at 4°C. The next morning samples were centrifuged at 3,600 rpm for 15 minutes. The supernatants (70 µL) were supplemented with an equal volume of internal standard solution (0.15 µM verapamil in water) and subjected to LC-MS/MS analysis.
# [3] = Kinetic aqueous solubility in PBS pH 7.4; assay type: physicochemical; settings: phosphate buffered saline (PBS), 25 °C, aqueous buffer, kinetic from dmso stock
# Protocol: These promising compounds were evaluated in in vitro ADME assays (aqueous solubility, Caco-2 permeability, plasma protein binding, and hepatocyte stability) to determine their drug-like properties (Table 4).
# Verapamil hydrochloride and tamoxifen were obtained from Sigma-Aldrich. All solvents were obtained from commercial sources and used without further purification. Hydrophilic PVDF 96-well filter plates ([…]), 2 mL 96-well assay block, and 96-well UV plates were purchased from Fisher Scientific.Test compound was prepared as a 10 mM stock solution in DMSO. Aqueous suspensions of test compound at 100 µM were prepared in assay buffers. The composition of phosphate buffered saline (PBS) is 0.1 M sodium phosphate, and 0.15 M sodium chloride, adjusted to pH 7.4. The suspensions were agitated at 200 rpm for 1 hour at 25 °C. The suspensions were transferred to a 0.45 µm hydrophilic PVDF 96-well filter plate mounted on a fresh 2 mL 96-well plate and were filtered by centrifugation at 3,000 rpm for 1 min. 150 µL of filtrates were transferred to 96-well UV plate for absorbance measurement. In order to determine the optimal wavelength for detection (λmax), the absorbance spectrum of the DMSO stock solution for each compound was recorded over a broad range of wavelengths (260–450 nm) using a UV/VIS plate reader (Molecular Devices Spectramax i3). To prepare calibration curves, a 1:1 serial dilution was performed on each compound starting at 100 µM to generate calibration solutions with concentrations ranging from […] to 100 µM. The UV absorbance of calibrants was measured at λmax for each compound. Concentration of each compound in the assay solution was calculated using the corresponding calibration curve. All assay measurements were performed in duplicate. […]
# [4] = Mouse plasma PK after oral gavage; assay type: in vivo; settings: female, CD1, mouse, mice, 10 mg/kg PO
# Protocol: For PK analysis of pyrrolopyrimidine analogs in mouse, rat, and dog plasma, the oral formulation was prepared as a solution containing 20% (w/v) Captisol in 25 mM NaH2PO4 buffer (pH 2). Compounds were administered orally by gavage at 10 mg/kg to female CD1 mice. After dosing, plasma samples were collected to characterize the PK profiles at 0.25, 0.5, 1, 2, 4, 8, 12 and 24 h post-dose. The plasma concentration of compound was determined by protein precipitation with acetonitrile and liquid chromatography with mass spectrometric detection (LC-MS/MS). Parameters were estimated using Phoenix (WinNonlin) pharmacokinetic software version 6.1.0 using a non-compartmental approach consistent with the oral route of administration. PK analysis of 26 in plasma and pancreas followed a similar analytical method as above, with minor modifications. Compound 26 was suspended in a vehicle consisting of 0.5% methylcellulose (400 cP) and 0.1% Tween80 in water and administered to BALB/c nude mice by oral gavage at 0.3, 1, 3, 10, 30 mg/kg. Plasma and pancreas were sampled from 5 mice per group following a single oral administration at 1, 4, 8, 12, 24 h post-dose.
# [5] = Plasma protein binding (RED dialysis), mouse; assay type: in vitro ADME; settings: male, CD-1 (ICR), pH 7.4
# Excerpt: as §1, §2, §3, §4, §5
# [6] = Homo sapiens, HEK293 cells, tunicamycin-induced ER stress, read-out: p-eIF2α IC50
SMILES,"IC50 [1, 6] [nM]","fraction unbound at 4 h, 1 µM [2]",solubility kinetic at 1 h [3] [µM],AUC(0-t) [4] [ng·h/mL],Cmax [4] [ng/mL],bioavailability [4] [%],half-life [4] [h],"fraction unbound at 4 h, 1 µM [5]","IC50 ([1]; bound stated, read-out: cellular potency) [nM]"
"Cc1cc(NC(=O)[C@H](O)c2cccc(F)c2)ccc1-c1cn(C)c2ncnc(N)c12 [Compound 11, (R)-N-(4-(4-amino-7-methyl-7H-pyrrolo[2,3-d]pyrimidin-5-yl)-3-methylphenyl)-2-(3-fluorophenyl)-2-hydroxy acetamide]",8.4,,,,,,,,
Cc1nc(N)c2c(-c3ccc(NC(=O)[C@H](O)c4cccc(F)c4)cc3C)cn(C)c2n1 [Compound 24],51,0.008,76,37500,13100,77,2.1,0.006,
Cc1nc(N)c2c(-c3ccc(NC(=O)[C@H](O)c4cccc(C(F)(F)F)c4)cc3C)cn(C)c2n1 [Compound 26],15,0.002,19,126000,17200,82,3.5,0.001,
Cc1nc(N)c2c(-c3ccc(NC(=O)[C@H](O)c4cccc(Cl)c4)cc3C)cn(C)c2n1 [Compound 28],16,0.002,35,65800,14100,84,2.4,< 0.001,
Cc1cc(F)cc([C@@H](O)C(=O)Nc2ccc(-c3cn(C)c4nc(C)nc(N)c34)c(C)c2)c1 [Compound 41],10,0.004,24,26000,12500,40,2.7,0.001,
Cc1nc(N)c2c(-c3ccc(NC(=O)[C@H](O)c4cccc(Cl)c4)cc3F)cn(C)c2n1 [Compound 48],10,0.001,14,10900,3020,70,2.1,0.002,< 15
"Cc1nc(N)c2c(-c3ccc(NC(=O)[C@H](O)c4cccc(F)c4)c(F)c3F)cn(C)c2n1 [Compound 70, (R)-N-(4-(4-amino-2,7-dimethyl-7H-pyrrolo[2,3-d]pyrimidin-5-yl)-2,3-difluorophenyl)-2-(3-fluorophenyl)-2-hydroxyacetamide]",24,0.006,66,32300,9720,117,2,0.003,

# More lines, now with the values ahead:
"IC50 [1, 6] [nM]","fraction unbound at 4 h, 1 µM [2]",solubility kinetic at 1 h [3] [µM],AUC(0-t) [4] [ng·h/mL],Cmax [4] [ng/mL],bioavailability [4] [%],half-life [4] [h],"fraction unbound at 4 h, 1 µM [5]","IC50 ([1]; bound stated, read-out: cellular potency) [nM]",SMILES
14,0.01,19,28900,8600,94,2,0.008,,Cc1nc(N)c2c(-c3ccc(NC(=O)[C@H](O)c4cc(F)cc(F)c4)cc3C)cn(C)c2n1 [Compound 38]
11,0.001,10,86400,14300,78,2.9,< 0.001,,Cc1nc(N)c2c(-c3ccc(NC(=O)[C@H](O)c4cc(F)cc(C(F)(F)F)c4)cc3C)cn(C)c2n1 [Compound 39]
30,0.004,58,40100,8150,129,2.2,0.007,,Cc1nc(N)c2c(-c3ccc(NC(=O)[C@H](O)c4cccc(F)c4)c(F)c3C)cn(C)c2n1 [Compound 65]
42,0.007,61,39800,9610,126,2,0.012,,Cc1nc(N)c2c(-c3cc(F)c(NC(=O)[C@H](O)c4cccc(F)c4)cc3C)cn(C)c2n1 [Compound 66]
